Test results published in patent publication US20210353767A1, “COMPOSITIONS AND METHODS FOR DRUG DELIVERY” (NORTH CAROLINA STATE UNIVERSITY, priority 2018, published 2021).
“And” between values parts separate entries of the source, which are not always exact repeats. Equal entries are not always repeated. Where two headings read alike, the source gives them in different places.

Assays:
[1] = test system: KPC 4662 pancreatic tumor; conditions: average of 4 mice
Protocol: Allograft Pancreatic Tumor. KPC 4662 pancreatic tumor cells (5e5) were injected in a 1:1 ratio with PBS:Matrigel(Matrigel Matrix 354234, lot 7205011) into the subcutaneous dorsal flanks of CD57B16 mice.
IVIS imaging (Camera #11219, DW434) was performed right before 100 ul of 50 mg/ml DBCO-cy7 retro orbital injections and imaged 24 hours afterwards when most of the unbound DBCO-cy was cleared from systemic circulation. For the refill dose experiments 9-week-old albino c57b16's from Envigo were used. For all other tumor refills, 9-week-old regular c57s from Envigo were used.

[2] = CD1 mice, one month after intradermal injection of 50 μL
Protocol: H&E slides of mouse skin and tissues from 8 mice were analyzed to determine local or distal effects of an injected depot material. All tissues were evaluated by light microscopy and were graded as: “-”=no changes observed in this tissue for any mouse; “0”=a particular change not present; “1”=change is present at slight/minimal severity; “2”=mild severity, “3”=moderate severity; “4” marked severity; “5”=severe. A grade of 1 represents the minimal detectable change and a 5 represents a change judged to be essentially as severe as possible.

KPC 4662 tumors = conditions: pancreatic tumor after a dose of DBCO-cy7
Protocol: 8 mice were similarly injected with KPC 4662 tumors and allowed to grow over a week until injection of sNHS(N=4) or PBS(N=4). Injection and imaging was performed as described above on the IVIS before and 24 hours after DBCO-cy7 IV injection. Tumors were then explanted imaged to compare to a linear regression alginate gels ROI's that contained the same dose injected IV to obtain a percentage of cy7 captured at the tumor site.
The study employed three tumors injected with a “Click Target” and one control.

[3] = Brain refills: capture of i.v. DBCO-Cy7 at intracranial azide-sNHS depot; format: in vivo; conditions: azide-sNHS vs control mice, 24 hours after i.v. administration
Protocol: Representative images of azide-sNHS and control mice after 24 hours after i.v. administration of DBCO-Cy7. The brain was removed and imaged alone.
Quantitation of intracranial ROI radiant efficiency was measured 24 hours after i.v. DBCO-Cy7 administration. Samples show mean+/−SEM. *=p<0.05, **=p<0.01 by Student's T-test.
Brain Refills. For anesthesia, 1-5% isoflurane was administered before procedures as well as continuously through the stereotaxic setup, and 0.5% lidocaine HCL administered subcutaneous under the incision site prior to surgery. 10-week-old CD1 mice were mounted on a kopf stereotaxic head stage using ear bars and a 5 μl Hamilton syringe placed in needle fixture. For surgery, the area to be incised on the head was shaved and washed with 70% alcohol. An incision with a #10 blade was made from posterior to anterior (start of skull to between eyes) and skin pulled away from incision using sterile Q-tips to expose the skull. The syringe needle was adjusted so the tip was at Bregma, position of the stereotaxic device recorded, and then moved to the desired calculated position where a marking will be made with a surgical marker. The experimental coordinates were −2.5M/L, −1A/P, −3D/V. A small hand drill was then used to make a 1-2 mm size hole in the skull for the injection needle. […] Once complete, the mouse skin was joined by VetBond skin glue and monitored post-surgery. […]

[4] = Intradermal tetrazine-sNHS depot, IVIS imaging of TCO-cy5 capture; format: in vivo, mice; conditions: for Average Radiant Efficiency: average of 4 mice; for Total Radiant Efficiency Measured within Regions of Interest (ROI): before-injection value subtracted, individual mouse
Protocol: 50 μL of 0.05M methyl tetrazine-sNHS ester was dissolved in sterile PBS, and injected intradermally into the dorsal flanks of mice CD1 Charles river mice. The first four images in FIG. 8 are pictures of the four mice treated with the “Click-Target” (tetrazine-sNHS) and the four control mice injected with PBS. The last 4 images in FIG. 8 show the fluorescence observed 24 hours after injection of the “Click Prodrug” (TCO-cy5). The IVIS was adjusted for this cy5 fluorophore. […] This experiment was also performed at 1 week with similar results
The total increase in fluorescence after the TCO-cy5 injection (at 1 day) over the intradermal injection ROI's (total radiant efficiency measurement) subtracting the before tco-cy5 image injection value are included below.
The total increase in fluorescence after the TCO-cy5 injection (at 1 week) over the intradermal injection ROI's (total radiant efficiency measurement) subtracting the before tco-cy5 image injection value are included below.

Question: With `[N-]=[N+]=NCCC(=O)ON1C(=O)CC(S(=O)(=O)O)C1=O` (stereo not shown) [Azide sNHS, 3-Azidopropionic Acid Sulfo-NHS ester] as the molecule, how does the “Average Radiant Efficiency” value ([1]; 24 hours after first administration of DBCO-cy7) read?
Answer: 9.21 × 10^9

Question: And the “Average Radiant Efficiency” value ([1]; 24 hours after second administration of DBCO-cy7)?
Answer: 7.26 × 10^9

Question: What about the “Average Radiant Efficiency” value ([1]; 24 hours after third administration of DBCO-cy7) of the same molecule?
Answer: 4.12 × 10^9

Question: What about the “histologic changes (H&E) versus PBS group” value [2] of the same molecule?
Answer: no difference between the two groups

Question: What about the “radiance relative to control (ROI measurements)” value (KPC 4662 tumors) of the same molecule?
Answer: four times greater

Question: With `C[N+]1=C(C=CC2=CC(=CC=C3N(CCCCCC(=O)NCCCCCC(=O)N4Cc5ccccc5C#Cc5ccccc54)c4ccccc4C3(C)C)CCC2)C(C)(C)c2ccccc21.F[P-](F)(F)(F)(F)F` [DBCO-Cy7, Cyanine7 DBCO] as the molecule, how does the “capture in the brain” value [3] read?
Answer: click-specific capture

Question: What does the source list for methyl tetrazine-sNHS ester?
Answer: Average Radiant Efficiency ([4]; TCO-cy5 injection at 1 week): 1.25 × 10^9; Average Radiant Efficiency ([4]; TCO-cy5 injection at 1 day): 2.72 × 10^9; Total Radiant Efficiency Measured within Regions of Interest (ROI) ([4]; increase in fluorescence after TCO-cy5 injection at 1 week): 1.12 × 10^9 and 1.57 × 10^9 and 1.31 × 10^9 and 1.01 × 10^9; Total Radiant Efficiency Measured within Regions of Interest (ROI) ([4]; increase in fluorescence after TCO-cy5 injection at 1 day): 3.64 × 10^9 and 2.40 × 10^9 and 1.92 × 10^9 and 2.90 × 10^9
